Data from article PMC9384988, “The TPR domain of PgaA is a multifunctional scaffold that binds PNAG and modulates PgaB-dependent polymer processing” (PLoS Pathogens, 2022).

Assays:
PgaA-220-367 = target: T1, PgaA-220-367 (Escherichia coli, UniProt P69434); assay: Direct ESI-MS binding assay, PgaA-220-367; parameters: species or system E. coli; conditions: 25°C and pH 7, direct ESI-MS assay; for Kd: read-out: Kd, TPR region 220–367
T1 construct: His6 (thrombin cleavable, pET28) (N); made in house; host or cells: E. coli BL21 CodonPlus (DE3)
T1 sequence (P69434 220-367): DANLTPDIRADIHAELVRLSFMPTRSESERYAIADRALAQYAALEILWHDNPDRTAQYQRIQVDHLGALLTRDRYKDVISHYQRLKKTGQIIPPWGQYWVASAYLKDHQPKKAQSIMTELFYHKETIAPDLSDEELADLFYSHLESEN
Experimental: (§1) Solutions of PgaA220-367 (5.7 μM) and PgaA32-367 (11.6 μM) were used for binding assay. […] Binding measurements were carried out in positive ion mode using a Synapt G2S ESI-Q-IMS-TOF mass spectrometer (Waters, Manchester, UK) equipped with nanoflow ESI (nanoESI) source. NanoESI was performed by applying a voltage of ~1 kV to a platinum wire inserted into the nanoESI tip, which was produced from a borosilicate glass capillary (1.0 mm o.d., 0.68 mm i.d.) pulled to ~5 μm o.d. using a P−1000 micropipette puller (Sutter Instruments, Novato, CA). The source temperature and gas flow rate was 60°C and 2 mL/min, respectively. The Cone, Trap and Transfer voltages were 20 V, 3 V and 1 V, respectively. MassLynx software (version 4.1) was used for data acquisition and processing.
(§2) The Kd for protein (P)—ligand (L) binding was calculated from the abundance ratio of L-bound to free P ions (i.e., R), measured by ESI-MS: R = Ab(PL)/Ab(P) = [PL]/[P], Kd = [P][L]/[PL] = [L]0/R—[P]0/(R+1), where [P]0 and [L]0 are initial concentrations of protein and ligand, correspondingly. Non-specific protein-ligand binding was corrected as published.

PgaA-32-367 = target: T2, PgaA-32-367 (Escherichia coli, UniProt P69434); assay: Direct ESI-MS binding assay, PgaA-32-367; parameters: species or system E. coli; conditions: 25°C and pH 7, direct ESI-MS assay; for Kd: read-out: Kd, TPR region 32–367
T2 construct: His6 (thrombin cleavable, pET28) (N); made in house; host or cells: E. coli BL21 CodonPlus
T2 sequence (P69434 32-367): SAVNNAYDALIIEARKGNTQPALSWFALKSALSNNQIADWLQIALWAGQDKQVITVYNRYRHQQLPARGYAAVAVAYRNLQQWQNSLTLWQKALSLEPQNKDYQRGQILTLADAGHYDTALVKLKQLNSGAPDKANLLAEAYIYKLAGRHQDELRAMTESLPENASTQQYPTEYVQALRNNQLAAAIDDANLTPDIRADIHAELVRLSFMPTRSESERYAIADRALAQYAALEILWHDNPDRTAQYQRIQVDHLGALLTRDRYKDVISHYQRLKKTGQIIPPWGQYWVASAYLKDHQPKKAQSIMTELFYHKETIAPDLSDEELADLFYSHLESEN
Experimental: as §1, §2

PgaA-32-220 = assay: ESI-MS binding test, PgaA-32-220; parameters: species or system E. coli; conditions: sample partially degraded
Experimental: PgaA32-220 was analyzed using the SolariX 15 T FT-ICR mass spectrometer (Bruker-Daltonics, Billerica, MA), equipped with a dynamically harmonized ParaCell and nanoESI source. […] The instrumental parameters for these measurements were: glass capillary exit voltage (200 V); source drying gas (N2, 4 L/min and 120°C); deflector plate (220 V). The RF amplitude of the ion-funnels was 300 V peak-to-peak, and the applied voltages were 150 V and 6 V for funnels 1 and 2, respectively. The voltage of skimmer 1 was 30 V and the skimmer 2 voltage was 5 V. Accumulation time in the hexapole collision cell was 0.7 s; the time-of-flight was 2 ms. The operating pressure in UHV region was ~5×10^−10 mbar. Data acquisition was performed using the FtmsControl software (version 2.2). The time-domain signal, consisting of the sum of 25 transients, containing 2M data points per transient, was subjected to one zero-fill prior to Fourier-transform.

[1] = Fluorescamine de-acetylation assay; format: biochemical; conditions: 30 μM enzyme and 30 mM PNAG hexamer; fluorescamine readout
Experimental: To determine whether the modulation of enzyme activity might be a common theme for the TPR domain across synthase-dependent systems, we assayed the deacetylase and glycoside hydrolase activities of PgaB in the presence and absence of PgaA. As we used co-expression to obtain the complexes, a SDS PAGE gel of the purified solutions of PgaA, PgaB and PgaA/B complexes was analyzed to ensure that equal quantities of the protein/protein complex were used (Fig 2A). Consistent with previous published studies, PgaA and PgaB appear to form a 1:1 complex. The deacetylase activity was assessed using a fluorescamine-based assay with fully acetylated PNAG hexamers as the substrate. As fluorescamine detects the presence of primary amines, which are generated during the deacetylation of the PNAG oligosaccharide, this assay provides a direct readout of the deacetylation activity of PgaB. To assess the glycoside hydrolase activity, we used a biofilm disruption assay, which has been used previously to characterize PgaB’s glycosidase activity. In this assay, biofilms of Staphylococcus epidermidis strain SE801 were grown in 96 well plates for 24 h, at which point PgaB was added. After a further 2 h, the reaction was quenched, plates washes and the amount of adherent biofilm remaining quantified using crystal violet staining. […]

Molecule: CC(=O)N[C@H]1[C@H](OC[C@H]2O[C@@H](OC[C@H]3O[C@@H](OC[C@H]4O[C@@H](OC[C@H]5OC(O)[C@H](NC(C)=O)[C@@H](O)[C@@H]5O)[C@H](NC(C)=O)[C@@H](O)[C@@H]4O)[C@H](NC(C)=O)[C@@H](O)[C@@H]3O)[C@H](NC(C)=O)[C@@H](O)[C@@H]2O)O[C@H](CO)[C@@H](O)[C@@H]1O (stereo partly drawn)
- Kd (PgaA-220-367): 1.7 mM
- Kd (PgaA-32-367): 10 mM
- binding to TPR region 32–220 (PgaA-32-220): No binding

Molecule: CC(=O)N[C@H]1[C@H](OC[C@H]2O[C@@H](OC[C@H]3O[C@@H](OC[C@H]4O[C@@H](OC[C@H]5OC(O)[C@H](NC(C)=O)[C@@H](O)[C@@H]5O)[C@H](NC(C)=O)[C@@H](O)[C@@H]4O)[C@H](N)[C@@H](O)[C@@H]3O)[C@H](NC(C)=O)[C@@H](O)[C@@H]2O)O[C@H](CO)[C@@H](O)[C@@H]1O (stereo partly drawn) [(GlcNAc)2-GlcN-(GlcNAc)2]
- Kd (PgaA-220-367): 1.3 mM
- Kd (PgaA-32-367): 2.3 mM
- binding to TPR region 32–220 (PgaA-32-220): No binding

Molecule: CC(=O)N[C@H]1[C@H](O[C@H]2[C@@H](O)[C@@H](CO)O[C@@H](O[C@@H]([C@H](O)[C@@H](O)C=O)[C@H](O)CO)[C@@H]2O)O[C@H](CO)[C@@H](O)[C@@H]1O[C@@H]1O[C@H](CO)[C@H](O)[C@H](O)[C@H]1O[C@@H]1O[C@@H](C)[C@@H](O)[C@@H](O)[C@@H]1O [LNF1, lacto-N-fucopentaose, reference compound]
- Kd, TPR region 220–367 (PgaA-220-367): No binding
- Kd, TPR region 32–367 (PgaA-32-367): No binding

B1: PgaA: E. coli PgaA residues 32–807, TPR domain plus outer membrane porin (protein)
chain: SAVNNAYDALIIEARKGNTQPALSWFALKSALSNNQIADWLQIALWAGQDKQVITVYNRYRHQQLPARGYAAVAVAYRNLQQWQNSLTLWQKALSLEPQNKDYQRGQILTLADAGHYDTALVKLKQLNSGAPDKANLLAEAYIYKLAGRHQDELRAMTESLPENASTQQYPTEYVQALRNNQLAAAIDDANLTPDIRADIHAELVRLSFMPTRSESERYAIADRALAQYAALEILWHDNPDRTAQYQRIQVDHLGALLTRDRYKDVISHYQRLKKTGQIIPPWGQYWVASAYLKDHQPKKAQSIMTELFYHKETIAPDLSDEELADLFYSHLESENYPGALTVTQHTINTSPPFLRLMGTPTSIPNDTWLQGHSFLSTVAKYSNDLPQAEMTARELAYNAPGNQGLRIDYASVLQARGWPRAAENELKKAEVIEPRNINLEVEQAWTALTLQEWQQAAVLTHDVVEREPQDPGVVRLKRAVDVHNLAELRIAGSTGIDAEGPDSGKHDVDLTTIVYSPPLKDNWRGFAGFGYADGQFSEGKGIVRDWLAGVEWRSRNIWLEAEYAERVFNHEHKPGARLSGWYDFNDNWRIGSQLERLSHRVPLRAMKNGVTGNSAQAYVRWYQNERRKYGVSWAFTDFSDSNQRHEVSLEGQERIWSSPYLIVDFLPSLYYEQNTEHDTPYYNPIKTFDIVPAFEASHLLWRSYENSWEQIFSAGVGASWQKHYGTDVVTQLGYGQRISWNDVIDAGATLRWEKRPYDGDREHNLYVEFDMTFRF
modifications: left off: His6, N-terminal, kept
notes: E. coli PgaA residues 32–807, TPR domain plus outer membrane porin
- concentration of GlcN produced [1]: 73.8 ± 6.3 µM
